Measured values: US11053242B2, “[9,10-dimethoxy-3-(2-methylpropyl)-1H,2H,3H,4H,6H,7H,11BH-pyrido-[2,1-a]isoquinolin-2-yl]methanol and compounds, compositions and methods relating thereto” (Neurocrine Biosciences, Inc., priority 2015, dated 2021)
pKi: −log10 of the molar value.

Target: VMAT2 (human platelet homogenate) (Homo sapiens (Human), UniProt Q05940)
Test: Human VMAT2 Ki, slightly modified competition binding procedure (Table 11);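 also: competition binding with 90 min incubation at 25 °C, after which filter-retained radioligand was measured by scintillation counting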
Conditions: 10 nM 3H-dihydrotetrabenazine
Description: Following incubation at 25° C. for 90 minutes, bound radioligand was collected by rapid filtration onto GF/B glass fiber filters using a Unifilter-96 Harvester (PerkinElmer). Filter plates were pre-treated with 0.1% polyethylenimine and allowed to dry overnight, and following harvesting the filter plates were washed with 800 d VMAT2 binding buffer. Bound radioligand was quantified by scintillation counting using a Topcount NXT (PerkinElmer).

VMAT2 (human platelet homogenate), sequence (Q05940 whole entry): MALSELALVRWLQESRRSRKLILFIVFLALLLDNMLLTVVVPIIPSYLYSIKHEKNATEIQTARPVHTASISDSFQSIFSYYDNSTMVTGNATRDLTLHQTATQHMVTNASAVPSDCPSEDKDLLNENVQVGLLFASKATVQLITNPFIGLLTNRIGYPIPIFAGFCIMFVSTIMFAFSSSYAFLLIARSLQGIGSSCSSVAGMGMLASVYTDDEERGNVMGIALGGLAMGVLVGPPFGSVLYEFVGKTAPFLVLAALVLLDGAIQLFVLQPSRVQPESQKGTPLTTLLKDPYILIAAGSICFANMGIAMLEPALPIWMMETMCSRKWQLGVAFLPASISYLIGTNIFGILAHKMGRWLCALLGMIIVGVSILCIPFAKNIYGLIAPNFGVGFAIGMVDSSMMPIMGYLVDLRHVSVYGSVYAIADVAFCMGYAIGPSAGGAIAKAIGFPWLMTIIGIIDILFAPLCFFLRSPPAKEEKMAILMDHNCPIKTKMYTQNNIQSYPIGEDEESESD

In the case of `COc1cc2c(cc1OC)[C@H]1C[C@@H](COC(=O)[C@@H]3COCCN3)[C@H](CC(C)C)CN1CC2` [Compound 4-3, [(2R,3S,11bR)-9,10-dimethoxy-3-(2-methylpropyl)-1H,2H,3H,4H,6H,7H,11bH-pyrido[2,1-a]isoquinolin-2-yl]methyl (3S)-morpholine-3-carboxylate], the pKi was 6.30 to 8.00.
Compound `COc1cc2c(cc1OC)[C@H]1C[C@@H](COC(=O)CC(N)C(C)C)[C@H](CC(C)C)CN1CC2` (stereo partly drawn) [Compound 4-17, [(2R,3S,11bR)-9,10-dimethoxy-3-(2-methylpropyl)-1H,2H,3H,4H,6H,7H,11bH-pyrido[2,1-a]isoquinolin-2-yl]methyl 3-amino-4-methylpentanoate] has a pKi greater than 8.00.
For `CCS(=O)(=O)NCCC(=O)OC[C@@H]1C[C@@H]2c3cc(OC)c(OC)cc3CCN2C[C@H]1CC(C)C` [Compound 2-5, [(2R,3S,11bR)-9,10-dimethoxy-3-(2-methylpropyl)-1H,2H,3H,4H,6H,7H,11bH-pyrido[2,1-a]isoquinolin-2-yl]methyl 3-ethanesulfonamidopropanoate], the pKi was greater than 8.00.
Work on `CCCCCC(=O)OC[C@@H]1C[C@@H]2c3cc(OC)c(OC)cc3CCN2C[C@H]1CC(C)C` [Compound 2-34, [(2R,3S,11bR)-9,10-dimethoxy-3-(2-methylpropyl)-1H,2H,3H,4H,6H,7H,11bH-pyrido[2,1-a]isoquinolin-2-yl]methyl hexanoate] yielded a pKi greater than 8.00.
For `CCN(CC)CCC(=O)OC[C@@H]1C[C@@H]2c3cc(OC)c(OC)cc3CCN2C[C@H]1CC(C)C` [Compound 2-32, [(2R,3S,11bR)-9,10-dimethoxy-3-(2-methylpropyl)-1H,2H,3H,4H,6H,7H,11bH-pyrido[2,1-a]isoquinolin-2-yl]methyl 3-(diethylamino)propanoate], the pKi was greater than 8.00.
For `COc1cc2c(cc1OC)[C@H]1C[C@@H](COC(=O)[C@@H]3CCN(Cc4ccccc4)C3)[C@H](CC(C)C)CN1CC2` [Compound 2-6, [(2R,3S,11bR)-9,10-dimethoxy-3-(2-methylpropyl)-1H,2H,3H,4H,6H,7H,11bH-pyrido[2,1-a]isoquinolin-2-yl]methyl (3R)-1-benzylpyrrolidine-3-carboxylate], the pKi was greater than 8.00.
`COC[C@@H]1C[C@@H]2c3cc(OC)c(OC)cc3CCN2C[C@H]1CC(C)C` [Compound 9-1, (2R,3S,11bR)-9,10-dimethoxy-2-(methoxymethyl)-3-(2-methylpropyl)-1H,2H,3H,4H,6H,7H,11bH-pyrido[2,1-a]isoquinoline] showed a pKi greater than 8.00.
`COc1cc2c(cc1OC)[C@H]1C[C@@H](COC(=O)N3CCN(C)C[C@H]3C)[C@H](CC(C)C)CN1CC2` [Compound 5-50, [(2R,3S,11bR)-9,10-dimethoxy-3-(2-methylpropyl)-1H,2H,3H,4H,6H,7H,11bH-pyrido[2,1-a]isoquinolin-2-yl]methyl (2R)-2,4-dimethylpiperazine-1-carboxylate] was tested, and the pKi was greater than 8.00.
With `COc1cc2c(cc1OC)[C@H]1C[C@@H](COC(=O)CCn3cnnn3)[C@H](CC(C)C)CN1CC2` [Compound 2-13, [(2R,3S,11bR)-9,10-dimethoxy-3-(2-methylpropyl)-1H,2H,3H,4H,6H,7H,11bH-pyrido[2,1-a]isoquinolin-2-yl]methyl 3-(1H-1,2,3,4-tetrazol-1-yl)propanoate] the pKi was greater than 8.00.
In the case of `COc1cc2c(cc1OC)[C@H]1C[C@@H](COC(=O)[C@@H](N)Cc3ccccc3)[C@H](CC(C)C)CN1CC2` [Compound 4-2, [(2R,3S,11bR)-9,10-dimethoxy-3-(2-methylpropyl)-1H,2H,3H,4H,6H,7H,11bH-pyrido[2,1-a]isoquinolin-2-yl]methyl (2S)-2-amino-3-phenylpropanoate], the pKi was greater than 8.00.
`COc1cc2c(cc1OC)[C@H]1C[C@@H](COC(=O)C3CNCCO3)[C@H](CC(C)C)CN1CC2` (stereo partly drawn) [Compound 4-27, [(2R,3S,11bR)-9,10-dimethoxy-3-(2-methylpropyl)-1H,2H,3H,4H,6H,7H,11bH-pyrido[2,1-a]isoquinolin-2-yl]methyl morpholine-2-carboxylate] showed a pKi greater than 8.00.
Compound `COc1cc2c(cc1OC)[C@H]1C[C@@H](COC(=O)CC(C)(C)n3cccc3)[C@H](CC(C)C)CN1CC2` [Compound 2-28, [(2R,3S,11bR)-9,10-dimethoxy-3-(2-methylpropyl)-1H,2H,3H,4H,6H,7H,11bH-pyrido[2,1-a]isoquinolin-2-yl]methyl 3-methyl-3-(1H-pyrrol-1-yl)butanoate] has a pKi of 6.30 to 8.00.
For `COc1cc2c(cc1OC)[C@H]1C[C@@H](COC(=O)N(C)C)[C@H](CC(C)C)CN1CC2` [Compound 5-29, [(2R,3S,11bR)-9,10-dimethoxy-3-(2-methylpropyl)-1H,2H,3H,4H,6H,7H,11bH-pyrido[2,1-a]isoquinolin-2-yl]methyl N,N-dimethylcarbamate], the pKi was 6.30 to 8.00.
`COc1cc2c(cc1OC)[C@H]1C[C@@H](COC(=O)[C@@H](N)c3ccccc3)[C@H](CC(C)C)CN1CC2` [Compound 4-33, [(2R,3S,11bR)-9,10-dimethoxy-3-(2-methylpropyl)-1H,2H,3H,4H,6H,7H,11bH-pyrido[2,1-a]isoquinolin-2-yl]methyl (2S)-2-amino-2-phenylacetate] was tested, and the pKi was 6.30 to 8.00.
`COc1cc2c(cc1OC)[C@H]1C[C@@H](COCCC3CCNCC3)[C@H](CC(C)C)CN1CC2` [Compound 10-1, 4-(2-{[(2R,3S,11bR)-9,10-dimethoxy-3-(2-methylpropyl)-1H,2H,3H,4H,6H,7H,11bH-pyrido[2,1-a]isoquinolin-2-yl]methoxy}ethyl)piperidine] gave a pKi greater than 8.00.
`COc1cc2c(cc1OC)[C@H]1C[C@@H](COC(=O)CCN3CCOCC3)[C@H](CC(C)C)CN1CC2` [Compound 2-2, [(2R,3S,11bR)-9,10-dimethoxy-3-(2-methylpropyl)-1H,2H,3H,4H,6H,7H,11bH-pyrido[2,1-a]isoquinolin-2-yl]methyl 3-(morpholin-4-yl)propanoate] was tested, and the pKi was greater than 8.00.
Compound `COc1cc2c(cc1OC)[C@H]1C[C@@H](COC(=O)CCCN(C)C)[C@H](CC(C)C)CN1CC2` [Compound 2-36, [(2R,3S,11bR)-9,10-dimethoxy-3-(2-methylpropyl)-1H,2H,3H,4H,6H,7H,11bH-pyrido[2,1-a]isoquinolin-2-yl]methyl 4-(dimethylamino)butanoate] has a pKi greater than 8.00.
With `COc1cc2c(cc1OC)[C@H]1C[C@@H](COC(=O)CC3(N)CCCCC3)[C@H](CC(C)C)CN1CC2` [Compound 4-14, [(2R,3S,11bR)-9,10-dimethoxy-3-(2-methylpropyl)-1H,2H,3H,4H,6H,7H,11bH-pyrido[2,1-a]isoquinolin-2-yl]methyl 2-(1-aminocyclohexyl)acetate] the pKi was greater than 8.00.
For `COc1cc2c(cc1OC)[C@H]1C[C@@H](COC(=O)CS(=O)(=O)O)[C@H](CC(C)C)CN1CC2` [Compound 2-35, 2-{[(2R,3S,11bR)-9,10-dimethoxy-3-(2-methylpropyl)-1H,2H,3H,4H,6H,7H,11bH-pyrido[2,1-a]isoquinolin-2-yl]methoxy}-2-oxoethane-1-sulfonic acid], the pKi was less than 6.30.
Compound `COc1cc2c(cc1OC)[C@H]1C[C@@H](COC(=O)N(C)C(C)C(=O)O)[C@H](CC(C)C)CN1CC2` (stereo partly drawn) [Compound 5-28, 2-[({[(2R,3S,11bR)-9,10-dimethoxy-3-(2-methylpropyl)-1H,2H,3H,4H,6H,7H,11bH-pyrido[2,l-a]isoquinolin-2-yl]methoxy}carbonyl)(methyl)amino]propanoic acid] has a pKi of less than 6.30.
For `COc1cc2c(cc1OC)[C@H]1C[C@@H](COC(=O)C3CCOCC3)[C@H](CC(C)C)CN1CC2` [Compound 2-22, [(2R,3S,11bR)-9,10-dimethoxy-3-(2-methylpropyl)-1H,2H,3H,4H,6H,7H,11bH-pyrido[2,1-a]isoquinolin-2-yl]methyl oxane-4-carboxylate], the pKi was greater than 8.00.
In the case of `COc1cc2c(cc1OC)[C@H]1C[C@@H](COC(=O)C[C@@H]3NC(=O)NC3=O)[C@H](CC(C)C)CN1CC2` [Compound 2-33, [(2R,3S,11bR)-9,10-dimethoxy-3-(2-methylpropyl)-1H,2H,3H,4H,6H,7H,11bH-pyrido[2,1-a]isoquinolin-2-yl]methyl 2-[(4S)-2,5-dioxoimidazolidin-4-yl]acetate], the pKi was 6.30 to 8.00.
Work on `COc1cc2c(cc1OC)[C@H]1C[C@@H](COC(=O)CC3CCCCN3)[C@H](CC(C)C)CN1CC2` (stereo partly drawn) [Compound 4-34, [(2R,3S,11bR)-9,10-dimethoxy-3-(2-methylpropyl)-1H,2H,3H,4H,6H,7H,11bH-pyrido[2,1-a]isoquinolin-2-yl]methyl 2-(piperidin-2-yl)acetate] yielded a pKi greater than 8.00.
With `COc1cc2c(cc1OC)[C@H]1C[C@@H](COC(=O)CCN3CCN(C)CC3)[C@H](CC(C)C)CN1CC2` [Compound 2-15, [(2R,3S,11bR)-9,10-dimethoxy-3-(2-methylpropyl)-1H,2H,3H,4H,6H,7H,11bH-pyrido[2,1-a]isoquinolin-2-yl]methyl 3-(4-methylpiperazin-1-yl)propanoate] the pKi was greater than 8.00.
`COc1cc2c(cc1OC)[C@H]1C[C@@H](COC(=O)C3(C)CCNCC3)[C@H](CC(C)C)CN1CC2` [Compound 4-35, [(2R,3S,11bR)-9,10-dimethoxy-3-(2-methylpropyl)-1H,2H,3H,4H,6H,7H,11bH-pyrido[2,1-a]isoquinolin-2-yl]methyl 4-methylpiperidine-4-carboxylate] gave a pKi greater than 8.00.
Compound `COc1cc2c(cc1OC)[C@H]1C[C@@H](COC(=O)C3CN(Cc4ccccc4)C3)[C@H](CC(C)C)CN1CC2` [Compound 2-21, [(2R,3S,11bR)-9,10-dimethoxy-3-(2-methylpropyl)-1H,2H,3H,4H,6H,7H,11bH-pyrido[2,1-a]isoquinolin-2-yl]methyl 1-benzylazetidine-3-carboxylate] has a pKi greater than 8.00.
`COc1cc2c(cc1OC)[C@H]1C[C@@H](COC(=O)N3CCO[C@@H](C)C3)[C@H](CC(C)C)CN1CC2` [Compound 5-44, [(2R,3S,11bR)-9,10-dimethoxy-3-(2-methylpropyl)-1H,2H,3H,4H,6H,7H,11bH-pyrido[2,1-a]isoquinolin-2-yl]methyl (2S)-2-methylmorpholine-4-carboxylate] showed a pKi greater than 8.00.
`COc1cc2c(cc1OC)[C@H]1C[C@@H](COC[C@@H]3CCCN3)[C@H](CC(C)C)CN1CC2` [Compound 10-4, (2S)-2-({[(2R,3S,11bR)-9,10-dimethoxy-3-(2-methylpropyl)-1H,2H,3H,4H,6H,7H,11bH-pyrido[2,1-a]isoquinolin-2-yl]methoxy}methyl)pyrrolidine] showed a pKi greater than 8.00.
